Laboratory results taken from ChEMBL document CHEMBL5506037, “Synthesis of Heterocyclic Ring-Fused Bisnoralcohol Derivatives as Novel Small-Molecule Antiosteoporosis Agents” (J Med Chem, 2024).

Columns and labels:
[1] = test system: BMMC; experiment: Anti-osteoclastogenesis activity in M-CSF/RANKL-induced C57BL/6J mouse BMMC cells assessed as inhibition of osteoclast differentiation at 0.1 uM incubated for 7 days by TRAP staining based analysis relative to control; type: functional; settings: 168 h, time 7 day
[2] = Cytotoxicity against M-CSF induced C57BL/6J mouse BMMC cells assessed as cell viability at 10 uM incubated for 48 hrs by CCK-8 assay relative to control; type: toxicity, cell-based; settings: read-out: Activity
[3] = test system: BMMC; experiment: Anti-osteoclastogenesis activity in M-CSF/RANKL-induced C57BL/6J mouse BMMC cells assessed as inhibition of osteoclast differentiation at 1 uM incubated for 7 days by TRAP staining based analysis relative to control; type: functional; settings: 168 h, time 7 day
[4] = test system: Mus musculus; experiment: Anti-osteoporosis activity in ovariectomized C57BL/6 mouse assessed as prevention of bone loss by measuring increase in BV/TV at 25 ug/kg, sc administered every day for 6 weeks by micro-CT analysis relative to control; type: functional; settings: dose 25 µg/kg
[5] = test system: Mus musculus; experiment: Anti-osteoporosis activity in ovariectomized C57BL/6 mouse assessed as prevention of bone loss by measuring decrease in trabecular spacing at 25 ug/kg, sc administered every day for 6 weeks by micro-CT analysis relative to control; type: functional; design: scale not given: the % may be the effect or the level left
[6] = Toxicity in ovariectomized female C57BL/6 mouse assessed as reduction in body weight at 25 ug/kg, sc administered every day for 6 weeks; type: organism-based; settings: in vivo, 0.025 mg/kg, 1008 h, dose 25 µg/kg
[7] = test system: Mus musculus; experiment: Anti-osteoporosis activity in ovariectomized C57BL/6 mouse assessed as prevention of bone loss by measuring increase in trabecular number at 25 ug/kg, sc administered every day for 6 weeks by micro-CT analysis relative to control; type: functional
[8] = test system: Mus musculus; experiment: Anti-osteoporosis activity in ovariectomized C57BL/6 mouse assessed as prevention of bone loss by measuring increase in trabecular thickness at 25 ug/kg, sc administered every day for 6 weeks by micro-CT analysis relative to control; type: functional
[9] = test system: BMMC; experiment: Anti-osteoclastogenesis activity in M-CSF/RANKL-induced C57BL/6J mouse BMMC cells assessed as inhibition of osteoclast differentiation at 10 uM incubated for 7 days by TRAP staining based analysis relative to control; type: functional; settings: 168 h, time 7 day
[10] = test system: BMMC; experiment: Anti-osteoclastogenesis activity in M-CSF/RANKL-induced C57BL/6J mouse BMMC cells assessed as inhibition of osteoclast differentiation at 5 uM incubated for 7 days by TRAP staining based analysis relative to control; type: functional; settings: 168 h, time 7 day

Row | SMILES | inhibition at 0.1 µM [1] | viability at 48 h, 10 µM [2] | inhibition at 1 µM [3] | other results
1 | CCCCNC(=O)[C@@H](C)[C@H]1CC[C@H]2[C@@H]3CC=C4C(C)(C)c5nnsc5C[C@]4(C)[C@H]3CC[C@]12C | 76.3% | ≥ 100% | 100% | 
2 | CC[C@H](C)[C@H](NC(=O)[C@H](CCC(=O)O)NC(=O)[C@H](CO)NC(=O)[C@@H](NC(=O)[C@@H](N)CO)C(C)C)C(=O)N[C@@H](CCC(N)=O)C(=O)N[C@@H](CC(C)C)C(=O)N[C@@H](CCSC)C(=O)N[C@@H](Cc1cnc[nH]1)C(=O)N[C@@H](CC(N)=O)C(=O)N[C@@H](CC(C)C)C(=O)NCC(=O)N[C@@H](CCCCN)C(=O)N[C@@H](Cc1cnc[nH]1)C(=O)N[C@@H](CC(C)C)C(=O)N[C@@H](CC(N)=O)C(=O)N[C@@H](CO)C(=O)N[C@@H](CCSC)C(=O)N[C@@H](CCC(=O)O)C(=O)N[C@@H](CCCNC(=N)N)C(=O)N[C@H](C(=O)N[C@@H](CCC(=O)O)C(=O)N[C@@H](Cc1c[nH]c2ccccc12)C(=O)N[C@@H](CC(C)C)C(=O)N[C@@H](CCCNC(=N)N)C(=O)N[C@@H](CCCCN)C(=O)N[C@@H](CCCCN)C(=O)N[C@@H](CC(C)C)C(=O)N[C@@H](CCC(N)=O)C(=O)N[C@@H](CC(=O)O)C(=O)N[C@H](C(=O)N[C@@H](Cc1cnc[nH]1)C(=O)N[C@@H](CC(N)=O)C(=O)N[C@@H](Cc1ccccc1)C(=O)O)C(C)C)C(C)C [TERIPARATIDE] |  |  |  | Activity [4]: 81.68%; Activity [5]: 52.76%; Activity [6]: Non-Toxic; Activity [7]: 41.75%; Activity [8]: 86.08%
3 | C[C@H](C(=O)Nc1ccncc1)[C@H]1CC[C@H]2[C@@H]3CC=C4C(C)(C)c5nnsc5C[C@]4(C)[C@H]3CC[C@]12C | 30.2% | ≥ 100% | 85.5% | 
4 | CCNC(=O)CCC[C@@H](C)[C@H]1CC[C@H]2[C@@H]3CC=C4C(C)(C)c5nnsc5C[C@]4(C)[C@H]3CC[C@]12C | 15.8% | ≥ 100% | 100% | 
5 | CC(C)CNC(=O)[C@@H](C)[C@H]1CC[C@H]2[C@@H]3CC=C4C(C)(C)c5nnsc5C[C@]4(C)[C@H]3CC[C@]12C | 72.1% | ≥ 100% | 100% | 
6 | CCCCCCNC(=O)[C@@H](C)[C@H]1CC[C@H]2[C@@H]3CC=C4C(C)(C)c5nnsc5C[C@]4(C)[C@H]3CC[C@]12C | 50.1% | ≥ 100% | 87.2% | 
7 | C[C@H](CO)[C@H]1CC[C@H]2[C@@H]3CC=C4C(C)(C)c5nnsc5C[C@]4(C)[C@H]3CC[C@]12C |  | ≥ 100% | 75.8% | inhibition at 10 µM [9]: 100%; inhibition at 5 µM [10]: 100%
8 | CCNC(=O)CCCC[C@@H](C)[C@H]1CC[C@H]2[C@@H]3CC=C4C(C)(C)c5nnsc5C[C@]4(C)[C@H]3CC[C@]12C | 7.4% | ≥ 100% | 98.8% | 
9 | COc1ccc(NC(=O)[C@@H](C)[C@H]2CC[C@H]3[C@@H]4CC=C5C(C)(C)c6nnsc6C[C@]5(C)[C@H]4CC[C@]23C)cc1 | 69.6% | ≥ 100% | 100% | 
10 | C[C@H](CO)[C@H]1CC[C@H]2[C@@H]3CC=C4C(C)(C)c5nonc5C[C@]4(C)[C@H]3CC[C@]12C |  | ≥ 100% | 42.4% | inhibition at 10 µM [9]: 100%; inhibition at 5 µM [10]: 90.5%
11 | C[C@H](CO)[C@H]1CC[C@H]2[C@@H]3CC=C4C(C)(C)c5[nH]ncc5C[C@]4(C)[C@H]3CC[C@]12C |  | ≥ 100% | 34.6% | inhibition at 10 µM [9]: 100%; inhibition at 5 µM [10]: 87%
12 | CCCNC(=O)[C@@H](C)[C@H]1CC[C@H]2[C@@H]3CC=C4C(C)(C)c5nnsc5C[C@]4(C)[C@H]3CC[C@]12C | 72.7% | ≥ 100% | 100% | 
13 | C[C@H](C(=O)N1CCOCC1)[C@H]1CC[C@H]2[C@@H]3CC=C4C(C)(C)c5nnsc5C[C@]4(C)[C@H]3CC[C@]12C | 53.5% | ≥ 100% | 91.9% | 
14 | Cc1nc2c(o1)C(C)(C)C1=CC[C@H]3[C@@H]4CC[C@H]([C@H](C)CO)[C@@]4(C)CC[C@@H]3[C@@]1(C)C2 |  | ≥ 100% | 43% | inhibition at 10 µM [9]: 89.8%; inhibition at 5 µM [10]: 73.8%
15 | C[C@H](C(=O)NC1CCCCC1)[C@H]1CC[C@H]2[C@@H]3CC=C4C(C)(C)c5nnsc5C[C@]4(C)[C@H]3CC[C@]12C | 54% | ≥ 100% | 100% | 
